According to patent US20250388589A1, “TRICYCLIC HETEROCYCLIC DERIVATIVES, COMPOSITIONS AND USES THEREOF” (Danatlas Pharmaceuticals Co., Ltd., priority 2022, published 2025):

What was measured:
[1] = biological target: hPARG (C-terminal His6-tag) (Homo sapiens (Human), UniProt Q86W56); experiment: PARG Enzymatic Activity Assay (HTRF); type: biochemical; details: hPARG 65 pM final, biotinylated-NAD ribosylated PARP1 8 nM final
Method in brief: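 E. coli-expressed enzyme (65 pM final) preincubated 60 min RT with compounds (10-point 4-fold dilution, duplicate) in 50 mM Tris pH 7.4, 3 mM EDTA, 1 mM DTT, 50 mM KCl, 0.01% Tween 20. Biotinylated-NAD ribosylated PARP1 substrate (8 nM final) reacted 10 min RT; Eu-streptavidin/anti-6HIS-XL665 HTRF read 665/620 nm after 60 min. IC50 from 4-parameter Hill fit.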

Kuramochi cell line = experiment: Cell Viability Assay (Cell Titer-Glo, 7 days); type: cell-based; details: 168 h, Kuramochi cells, 7 days incubation, read-out: PARG Cell viability (IC50)
Method in brief: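 Kuramochi cells in RPMI with 10% FBS, seeded at 400 cells/well, were treated with a 9-point 3-fold dilution series in duplicate for 7 days at 37 °C, 5% CO2. Viability by CellTiter-Glo luminescence, normalised to DMSO and medium-only controls; IC50 from 4-parameter Hill fit.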

Chain of hPARG (C-terminal His6-tag) (Q86W56 whole entry): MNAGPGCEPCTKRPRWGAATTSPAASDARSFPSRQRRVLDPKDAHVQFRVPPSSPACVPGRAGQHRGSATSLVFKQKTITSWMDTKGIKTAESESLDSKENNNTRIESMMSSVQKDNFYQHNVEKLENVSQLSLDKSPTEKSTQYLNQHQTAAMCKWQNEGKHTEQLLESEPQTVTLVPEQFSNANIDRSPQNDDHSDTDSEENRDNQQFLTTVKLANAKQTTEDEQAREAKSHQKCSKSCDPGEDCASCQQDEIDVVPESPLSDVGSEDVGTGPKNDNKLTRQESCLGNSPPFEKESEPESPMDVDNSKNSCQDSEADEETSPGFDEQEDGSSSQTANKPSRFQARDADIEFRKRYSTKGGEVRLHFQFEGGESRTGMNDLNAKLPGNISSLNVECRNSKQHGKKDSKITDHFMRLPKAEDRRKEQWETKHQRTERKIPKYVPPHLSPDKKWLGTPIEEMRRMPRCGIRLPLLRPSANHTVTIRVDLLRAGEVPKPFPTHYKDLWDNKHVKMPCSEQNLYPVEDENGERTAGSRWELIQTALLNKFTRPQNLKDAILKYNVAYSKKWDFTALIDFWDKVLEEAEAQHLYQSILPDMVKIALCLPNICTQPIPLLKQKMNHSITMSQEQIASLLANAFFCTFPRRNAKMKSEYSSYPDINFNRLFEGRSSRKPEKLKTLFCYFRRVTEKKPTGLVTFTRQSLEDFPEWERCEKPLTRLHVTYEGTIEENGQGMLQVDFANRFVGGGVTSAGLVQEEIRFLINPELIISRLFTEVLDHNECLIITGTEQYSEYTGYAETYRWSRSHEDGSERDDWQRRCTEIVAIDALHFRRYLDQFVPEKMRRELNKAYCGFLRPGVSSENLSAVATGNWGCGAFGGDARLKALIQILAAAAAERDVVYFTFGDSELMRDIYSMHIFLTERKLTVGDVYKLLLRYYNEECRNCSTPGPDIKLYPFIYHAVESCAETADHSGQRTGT

SMILES	IC50 [1] [nM]	IC50 (Kuramochi cell line) [nM]
CN(C)C(=O)N1CCC(c2ncnc3c2c2cc(F)c(S(=O)(=O)NC4(C#N)CC4)cc2n3-c2nnc(C(F)F)s2)CC1 [Example 89, 4-(7-(N-(1-Cyanocyclopropyl)sulfamoyl)-9-(5-(difluoromethyl)-1,3,4-thiadiazol-2-yl)-6-fluoro-9H-pyrimido[4,5-b]indol-4-yl)-N,N-dimethylpiperidine-1-carboxamide]	< 100	< 100
CN1CCN(C(=O)N2CCC(c3ncnc4c3c3ccc(S(=O)(=O)NC5(C#N)CC5)cc3n4-c3nnc(C(F)F)s3)CC2)CC1 [Example 141, N-(1-cyanocyclo-propyl)-9-(5-(difluoromethyl)-1,3,4-thiadiazol-2-yl)-4-(1-(4-methylpiperazine-1-carbonyl)piperidin-4-yl)-9H-pyrimido [4,5-b]indole-7-sulfonamide]	< 100	100 to 1000
N#CC1(NS(=O)(=O)c2ccc3c4c(N5CCC(N6CCOCC6)[C@@H](F)C5)ncnc4n(-c4nnc(C(F)F)s4)c3c2)CC1 (stereo partly drawn) [Example 209, N-(1-Cyanocyclopropyl)-9-(5-(difluoromethyl)-1,3,4-thiadiazol-2-yl)-4-((3S)-3-fluoro-4-morpholinopiperidin-1-yl)-9H-pyrimido[4,5-b]indole-7-sulfonamide]	< 100	< 100
N#CC1(NS(=O)(=O)c2ccc3c4c(C5CCN(C(=O)N6CC(O)C6)CC5)ncnc4n(-c4nnc(C(F)F)s4)c3c2)CC1 [Example 138, N-(1-cyanocyclo-propyl)-9-(5-(difluoromethyl)-1,3,4-thiadiazol-2-yl)-4-(1-(3-hydroxy-azetidine-1-carbonyl)piperidin-4-yl)-9H-pyrimido [4,5-b]indole-7-sulfonamide]	< 100	100 to 1000
N#CC1(NS(=O)(=O)c2ccc3c4c(C5CCCCO5)ncnc4n(-c4nnc(C(F)F)s4)c3c2)CC1 (stereo not shown) [Example 83, N-(1-cyanocyclopropyl)-9-(5-(difluoromethyl)-1,3,4-thiadiazol-2-yl)-4-(tetrahydro-2H-pyran-2-yl)-9H-pyrimido[4,5-b]indole-7-sulfonamide]	< 100	100 to 1000
Cc1ccc(C(=O)N2CCN(c3ncnc4c3c3ccc(S(=O)(=O)NC5(C#N)CC5)cc3n4-c3nnc(C(F)F)s3)CC2)nc1 [Example 35, N-(1-Cyanocyclopropyl)-9-(5-(difluoromethyl)-1,3,4-thiadiazol-2-yl)-4-(4-(5-methylpicolinoyl)piperazin-1-yl)-9H-pyrimido[4,5-b]indole-7-sulfonamide]	< 100	< 100
CC(C)C(=O)N1CCC(c2ccnc3c2c2ccc(S(=O)(=O)NC4(C#N)CC4)cc2n3-c2nnc(C(F)F)s2)CC1 [Example 197, N-(1-Cyanocyclopropyl)-9-(5-(difluoromethyl)-1,3,4-thiadiazol-2-yl)-4-(1-isobutyrylpiperidin-4-yl)-9H-pyrido[2,3-b]indole-7-sulfonamide]	< 100	100 to 1000

The next lines start with results.

IC50 [1] [nM]	SMILES	IC50 (Kuramochi cell line) [nM]
< 100	N#CC1(NS(=O)(=O)c2ccc3c4c(N5CC6CCC(C5)O6)ncnc4n(-c4nnc(C(F)F)s4)c3c2)CC1 [Example 201, 4-(8-Oxa-3-azabicyclo[3.2.1]octan-3-yl)-N-(1-cyanocyclopropyl)-9-(5-(difluoromethyl)-1,3,4-thiadiazol-2-yl)-9H-pyrimido[4,5-b]indole-7-sulfonamide]	< 100
< 100	CC(C)C(=O)N1[C@H](C)CN(c2ncnc3c2c2ccc(S(=O)(=O)NC4(C)CC4)cc2n3-c2nnc(C(F)F)s2)C[C@@H]1C [Example 190, 9-(5-(Difluoromethyl)-1,3,4-thiadiazol-2-yl)-4-((3R,5S)-4-isobutyryl-3,5-dimethylpiperazin-1-yl)-N-(1-methylcyclopropyl)-9H-pyrimido[4,5-b]indole-7-sulfonamide]	< 100
< 100	CN1CCC(C(=O)N2CCN(c3ncnc4c3c3ccc(S(=O)(=O)NC5(C#N)CC5)cc3n4-c3nnc(C(F)F)s3)CC2)C1 (stereo not shown) [Example 67, N-(1-Cyanocyclopropyl)-9-(5-(difluoromethyl)-1,3,4-thiadiazol-2-yl)-4-(4-(1-methylpyrrolidine-3-carbonyl)piperazin-1-yl)-9H-pyrimido[4,5-b]indole-7-sulfonamide]	100 to 1000
< 100	C[C@H]1CN(c2ncnc3c2c2ccc(S(=O)(=O)NC4(C)CC4)cc2n3-c2nnc(C(F)F)s2)CCN1C(=O)N(C)C [Example 101, (S)-4-(9-(5-(Difluoromethyl)-1,3,4-thiadiazol-2-yl)-7-(N-(1-methylcyclopropyl)sulfamoyl)-9H-pyrimido[4,5-b]indol-4-yl)-N,N,2-trimethylpiperazine-1-carboxamide]	< 100
< 100	CON(C)C(=O)N1CCC(c2ncnc3c2c2ccc(S(=O)(=O)NC4(C#N)CC4)cc2n3-c2nnc(C(F)F)s2)CC1 [Example 145, 4-(7-(N-(1-Cyanocyclopropyl)sulfamoyl)-9-(5-(difluoromethyl)-1,3,4-thiadiazol-2-yl)-9H-pyrimido[4,5-b]indol-4-yl)-N-methoxy-N-methylpiperidine-1-carboxamide]	< 100
< 100	CCN1CCN(c2ncnc3c2c2ccc(S(=O)(=O)NC4(C#N)CC4)cc2n3-c2nnc(C(F)F)s2)CC1=O [Example 155, N-(1-cyanocyclopropyl)-9-(5-(difluoromethyl)-1,3,4-thiadiazol-2-yl)-4-(4-ethyl-3-oxopiperazin-1-yl)-9H-pyrimido[4,5-b]indole-7-sulfonamide]	< 100
100 to 1000	N#CC1(NS(=O)(=O)c2ccc3c4c(N5CCC(F)(F)CC5)ncnc4n(-c4nnc(C(F)F)s4)c3c2)CC1 [Example 52, N-(1-Cyanocyclopropyl)-9-(5-(difluoromethyl)-1,3,4-thiadiazol-2-yl)-4-(4,4-difluoropiperidin-1-yl)-9H-pyrimido[4,5-b]indole-7-sulfonamide]	100 to 1000
100 to 1000	C[C@H]1CN(C(=O)N(C)C)CCN1c1ncnc2c1c1ccc(S(=O)(=O)NC3(C#N)CC3)cc1n2-c1nnc(C(F)F)s1 [Example 72, (S)-4-(7-(N-(1-Cyanocyclopropyl)sulfamoyl)-9-(5-(difluoromethyl)-1,3,4-thiadiazol-2-yl)-9H-pyrimido[4,5-b]indol-4-yl)-N,N,3-trimethylpiperazine-1-carboxamide]	100 to 1000
< 100	CN(C)C(=O)N1CCC(c2ncnc3c2c2ccc(S(=O)(=O)NC4(C#N)CC4)cc2n3-c2nnc(C(F)F)s2)CC1 [Example 88, 4-(7-(N-(1-Cyanocyclopropyl)sulfamoyl)-9-(5-(difluoromethyl)-1,3,4-thiadiazol-2-yl)-9H-pyrimido[4,5-b]indol-4-yl)-N,N-dimethylpiperidine-1-carboxamide]	< 100
< 100	N#CC1(NS(=O)(=O)c2ccc3c4c(N5C[C@@H]6C[C@H]5CO6)ncnc4n(-c4nnc(C(F)F)s4)c3c2)CC1 [Example 177, 4-((1S,4S)-2-oxa-5-azabicyclo[2.2.1]heptan-5-yl)-N-(1-cyanocyclopropyl)-9-(5-(difluoromethyl)-1,3,4-thiadiazol-2-yl)-9H-pyrimido[4,5-b]indole-7-sulfonamide]	< 100
